Experiments:
[1] = test system: Beclin 2-GASP1 interaction; assay: Coimmunoprecipitation of endogenous GASP1 with Flag-human Beclin 2 in HEK293 cells; type: cell-based; settings: 3 h
From the text: Based on this model, the effect of these inducers on the Beclin 2-GASP1 interaction in vitro and in mouse brain were subsequently examined.

[2] = test system: WT primary cortical neurons; assay: TUNEL assay of primary cortical neurons treated with conditioned media of APP-HEK293 cells; type: cell-based, mouse
Method: Nuclei were stained with DAPI. Scale bar, 100 μm. N=10 fields (each field containing 20-30 neurons).
TUNEL assays. APP-HEK293 cells were cultured in 6-well dishes for 24 h and then the media was replaced with neuronal culture media. After 48 h, conditioned media was collected and used to treat primary cortical neurons (12 DIV) cultured on poly-L-lysine coated slides for another 24 h. Apoptotic neurons were detected by the In Situ Cell Death Detection Kit, TMR red (Roche, cat. #12156792910) according to the manufacturer's instructions. Nuclei were stained using the mounting medium containing DAPI (Vectashield). Quantification of red TUNEL-positive neurons was done using the NIS Elements software.

LC3 and p62/SQSTM1 = assay: Western blot detection of LC3 and p62/SQSTM1 in mouse tissues; type: in vivo; settings: for LC3-II conversion / levels of p62 (SQSTM1): mouse brain
Method: WAT, white adipose tissue; BAT, brown adipose tissue.
Autophagy analyses. For assessment of autophagy in vivo, 8-week old male WT and Becn 1FA/FA mice crossed to GFP-LC3 mice were exercised for 90 minutes, or starved for 48 h, and then anaesthetized by isoflurane and perfused with 4% PFA Brain and muscle samples were fixed in 4% PFA overnight, 15% sucrose for 4 h and 30% sucrose overnight before frozen sections were prepared. The number of GFP-LC3 puncta per unit area of tissue was quantified by fluorescence microscopy. Autophagy in vivo was also analyzed by western blot analysis of brain tissue extracts with antibodies against LC3 and p62/SQSTM1 (see below for details).
(§1) Western blot analyses. Cell or mouse muscle and brain extracts were prepared in lysis buffer containing 50 mM Tris (pH 7.4), 150 mM NaCl, 1 mM EDTA, 1% Triton X-100, halt proteinase inhibitor cocktail (ThermoFisher Scientific) and halt phosphatase inhibitor cocktail (ThermoFisher Scientific), and subjected to western blot analysis with anti-LC3 (Novus Biologicals, NB100-2220), anti-SQSTM 1 (Abnova, H00008878-M01), anti-Af342 (Invitrogen; 700254), anti-APP (Biolegend; 803001), HRP-conjugated GFP antibody (Santa Cruz Biotechnology, sc9996), anti-HA (Cell Signaling Technology, C29F4), anti-ATG7 (Sigma Aldrich; A2856), anti-LDLR (Abeam, ab52818), anti-LRP 1 (Abeam, ab92544), and anti-ACTB/f3-actin-HRP (Santa Cruz Biotechnology, sc47778 HRP) antibodies. The band intensity was analyzed using the ImageJ software.

APP = assay: Expression of the precursor APP in brain of 5XFAD mice; type: in vivo, mouse
Method: as §1

[3] = test system: HTT65Q and HTT103Q aggregates; assay: Filter trap assay of polyQ HTT aggregates in HeLa cells; type: cell-based
Method: Cells were transfected with nontargeting control (NC) or ATG7 siRNA 24 h prior to Rg2 treatment for another 24 h. HTT aggregates were analyzed by lysate filtration through 0.2 μm nitrocellulose membrane. Cells treated with tetracycline served as negative control.
ML246 promotes the removal of intracellular aggregates formed by polyglutamine (polyQ)-expansion proteins. HeLa cell lines stably expressing tetracycline-repressible expanded polyQ-repeat protein HTT (huntingtin) was used as a model, HTT65Q and HTT103Q. In contrast to the HTT protein with the normal number of glutamine repeats (HTT25Q), HTT65Q and HTT103Q formed insoluble polyQ aggregates larger than 0.2-μm diameter, which can be detected by filter trap assay. […] Fluorescence imaging further confirmed that ML246 administration decreased the number of cells positive for HTT aggregates, which is also in an ATG7-dependent manner (FIG. S6B).
Accordingly, whether Rg2 affects the clearance of proteinaceous inclusions in vitro was next determined, using HeLa cell lines expressing tetracycline-repressible expanded polyglutamine (polyQ)-repeat protein HTT (huntingtin), HTT65Q and HTT103Q. Unlike the HTT protein with the normal number of glutamine repeats (HTT25Q), HTT65Q and HTT103Q formed insoluble polyQ aggregates larger than 0.2-μm diameter, which were detected by filter trap assays (FIG. 5A).
Filter trap assay. HeLa cells stably expressing CFP-HTT25Q, CFP-HTT65Q and CFP-HTT103Q were treated with 100 ng/ml tetracycline (IBI Scientific, IB02200) for 48 h, or 0.5 μM ML246 for 24 h with control or ATG7 siRNA (GE Dharmacon ON-TARGETplus control or ATG7 SMARTpool siRNA) for 48 h. Cells were then collected and lysed in lysis buffer containing 0.5% NP-40 for 30 min at 4° C. After centrifugation, the pellet was digested with 0.5 mg/ml DNasel (in 20 mM Tris-Cl, pH 8.0) for 1 h at 37° C., and dissolved into lysates containing insoluble aggregates by 2% SDS, 50 mM DTT and 20 mM EDTA. The lysates were then added onto 0.2 μm nitrocellulose membrane that was pre-equilibrated with 2% SDS/TBS for 30 min, and were filtered through the membrane by gentle vacuum using the Bio-Dot SF microfiltration apparatus (Bio-Rad). The signal was detected by immunostaining with the HRP-conjugated GFP antibody (Santa Cruz Biotechnology, sc9996, 1:1000).

mouse models of AD = settings: cited from earlier work
[4] = test system: HeLa cell lines expressing HTT
5XFAD mice [5] = assay: Open-field test of 5XFAD mice; type: in vivo, mouse; settings: Rg2-treated vs vehicle-treated 5XFAD mice
5XFAD mice [6] = assay: Contextual fear conditioning test of 5XFAD mice; type: in vivo, mouse; settings: Rg2 for 4 months
Method: Fear conditioning training exposed mice to 2-s electrical foot shocks separated by 1-min interval through a grid floor at the bottom of the chamber. On the following day, the mice were returned to the same chamber and their movements were recorded with a video camera to test for contextual conditioning. Freezing (very low levels of movement) in the training environment indicate context-associated fear. WT mice without APP transgene were used as negative control in the above studies. N=8. *, P<0.05; **, P<0.01, t test.

[7] = mouse, in vivo
[8] = liver, muscle, brain, heart, white and brown adipose tissue

| Compound | coimmunoprecipitation of endogenous GASP1 by Beclin 2 [1] | apoptotic cell death of neurons ([2]; conditioned media from ML246-treated APP-HEK293 cells vs vehicle-treated) | ML246-mediated reduction of apoptotic neuronal death ([2]; siRNA knockdown of ATG7 in APP-HEK293 cells) | LC3-II conversion (LC3 and p62/SQSTM1) | levels of p62 (SQSTM1) (LC3 and p62/SQSTM1) | expression of the precursor APP (APP; ML246 for 5 weeks) | accumulation of HTT65Q and HTT103Q aggregates ([3]; 0.5 μM ML246, 24 h) | reduction of HTT65Q and HTT103Q aggregates ([3]; ML246 with knockdown of ATG7) | amyloid burden and memory deficit (mouse models of AD) | cell viability [4] | locomotor activity (distance travelled) (5XFAD mice [5]) | freezing responses (contextual fear memory) (5XFAD mice [6]) | LC3-I to LC3-II conversion (LC3 and p62/SQSTM1; [8]) | levels of SQSTM1 (LC3 and p62/SQSTM1; [8]) | expression of the precursor APP (APP; Rg2 for 16 weeks) | accumulation of HTT65Q and HTT103Q aggregates ([3]; Rg2, 24 h) | effect on HTT aggregates ([3]; Rg2 with knockdown of ATG7) | food intake [7] |
| --- | --- | --- | --- | --- | --- | --- | --- | --- | --- | --- | --- | --- | --- | --- | --- | --- | --- | --- |
| N=c1c2c(-c3ccccc3)c(-c3ccccc3)n(Cc3ccccc3)c2ncn1[C@H]1CC[C@H](O)CC1 [ML246] | potently blocked | lower level | reversed | not detect significant changes | decreased | not affected | decreased | prevents this reduction | – | – | – | – | – | – | – | – | – | – |
| CC(C)=CCC[C@](C)(O)[C@H]1CC[C@]2(C)[C@@H]1[C@H](O)C[C@@H]1[C@@]3(C)CC[C@H](O)C(C)(C)[C@@H]3[C@@H](O[C@@H]3O[C@H](CO)[C@@H](O)[C@H](O)[C@H]3O[C@@H]3O[C@@H](C)[C@H](O)[C@@H](O)[C@H]3O)C[C@]12C [Rg2, ginsenoside Rg2] | – | – | – | not detect significant changes | decreased | – | – | – | reduces amyloid burden and memory deficit | grew as well as the control cells | no rescue | rescued the freezing responses | increased | decreased levels | remained unaffected | decreased accumulation | abolished | does not alter |
